Among the data in PubChem BioAssay AID434987 (Southern Research Specialized Biocontainment Screening …, 2010) are IC50 and IC90 values, retold here.

Activity calls are given as the source filed them. How the calls were made is not given here. Where only a bound is given, the exact number is not on record here.

The subject of this experiment is M. tuberculosis H37Rv growth inhibition with meropenem. The experiment can be described thus: dose response, H37Rv, with and without meropenem (AID 434987).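 Further: growth over 7 days at 37 °C before Alamar Blue read on day 9.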
The mark [1] stands for this setting: M. tuberculosis H37Rv growth inhibition, measured here: IC50 without meropenem.
Where [2] appears, read: M. tuberculosis H37Rv growth inhibition, measured here: IC90 without meropenem.
Where [3] appears, read: measured here: IC90 with meropenem.

Usually IC50 stands for the concentration that inhibits the measured activity by half. The IC90 is the concentration at which the effect reaches the 90% level. A low value points to greater potency. In the case of `CC(=O)Nc1cccc(/C(C)=N/NC(N)=S)c1`, the IC50 was 7.9 µM. Further, the IC50 under setting [1] is > 100 µM. Under setting [2], the IC90 was > 100 µM. Under setting [3], this compound yielded an IC90 of 28.6 µM.
For the compound `N=C1C(c2nc3ccccc3[nH]2)=C(O)CN1c1ccc(F)cc1`, the IC50 was 7.73 µM. Moreover, under setting [1], the IC50 is > 100 µM. Also, the IC90 under setting [2] is > 100 µM. Moreover, the IC90 under setting [3] is > 100 µM.
Regarding `O=C(Oc1c(-c2ccccc2)c(=O)n2c3c(cccc13)CC2)c1ccc(F)cc1`, the IC50 was 6.19 µM. Moreover, under setting [1], the IC50 is 54.2 µM. In addition, the IC90 under setting [2] was > 100 µM. Moreover, the IC90 under setting [3] stood at 34 µM.
For `CCOC(=O)/C(C#N)=C/c1ccc(OCC(=O)Nc2ccccc2)c(OC)c1`, in that order: 98.4 µM (inactive), > 100 µM, > 100 µM and > 100 µM.
For `COc1ccc(-c2csc(NC(CO)c3nc4ccccc4n3Cc3ccc(C)cc3)n2)cc1` (centres undefined), in that order: 25 µM (inactive), 48.4 µM, 57.2 µM and 26.4 µM.
Regarding `c1ccc(-c2noc(-c3cccc4ccccc34)n2)cc1`, the IC50 is 20.2 µM. Moreover, the IC50 under setting [1] is > 100 µM. The IC90 under setting [2] was > 100 µM. For the same compound, the IC90 under setting [3] was > 100 µM.
Consider `CC1CC2(CCCCC2)Nc2ccc3ccccc3c21` (centres undefined), for which the IC50 was 49.1 µM (inactive). Also, the IC50 under setting [1] is 86.1 µM. This compound yielded an IC90 under setting [2] of 96 µM. For the same compound, under setting [3], the IC90 was > 100 µM.
`BrC(=C\c1ccccc1)/C=N/N1CCN(c2ccccn2)CC1`: the IC50 is > 100 µM (inactive). The IC50 under setting [1] was > 100 µM. The IC90 under setting [2] was > 100 µM. Further, the IC90 under setting [3] was > 100 µM.
Take `CC(C(=O)Nc1nc2ccccc2[nH]1)N1C(=O)C2CC=CCC2C1=O` (centres undefined): the IC50 is > 100 µM (inactive). The IC50 under setting [1] was > 100 µM. Moreover, the concentration for an effect of 90% (IC90) under setting [2] was > 100 µM. The IC90 under setting [3] was > 100 µM.
With `CCC1CCCCN1C(=O)CSc1nnc(-c2ccc(Cl)s2)o1` (centres undefined), the IC50 was > 100 µM (inactive). Further, under setting [1], the IC50 was > 100 µM. Under setting [2], the IC90 was > 100 µM. The IC90 under setting [3] is > 100 µM.
For `CCCCCCC(=O)Nc1nc(C)c(-c2csc(Nc3cc(Cl)ccc3OC)n2)s1`, the IC50 was 42.3 µM (inactive). Further, the IC50 under setting [1] was 51.1 µM. In addition, the IC90 under setting [2] was > 100 µM. Moreover, under setting [3], the IC90 is > 100 µM.
Take `CN(C)S(=O)(=O)n1cc(/C=C(\NC(=O)c2ccccc2)C(=O)NCCN2CCOCC2)c2ccccc21`: the IC50 was > 100 µM (inactive). The half-maximal inhibitory concentration (IC50) under setting [1] was > 100 µM. Moreover, under setting [2], the IC90 was > 100 µM. Further, under setting [3], the IC90 was > 100 µM.
Turning to `S=C(Nc1ccc(Cl)cc1)c1nc2ccccc2s1`, the IC50 is 43.2 µM (inactive). In addition, the IC50 under setting [1] was > 100 µM. The IC90 under setting [2] was > 100 µM. The IC90 under setting [3] was > 100 µM.
As for `Cc1c(C(=O)Nc2cccnc2)oc2ccc(Br)cc12`, the IC50 was > 100 µM (inactive). Besides, the IC50 under setting [1] was > 100 µM. Moreover, the IC90 under setting [2] is > 100 µM. The IC90 under setting [3] was > 100 µM.
In the case of `Cc1ccc(Nc2nc(N)nc(CC#N)n2)cc1`, the IC50 is 61.3 µM (inactive). Further, the IC50 under setting [1] is 75.6 µM. The IC90 under setting [2] was > 100 µM. For the same compound, under setting [3], the IC90 came out at 92.7 µM.
For `COc1ccc2ccccc2c1/C=N/NC(=O)c1cccc(C)c1`, in that order: 64.9 µM (inactive), > 100 µM, > 100 µM and > 100 µM.
In the same order, the values of `O=c1c2c(nc3n1CCCCC3)sc1c(O)c(Br)ccc12` are 48 µM (inactive), > 100 µM, > 100 µM and > 50 µM.
For `CCC(=O)N1CCN(c2ccc(NC(=S)NC(=O)c3ccc(OC)c([N+](=O)[O-])c3)cc2)CC1`, in that order: 40.2 µM (inactive), 79.6 µM, > 100 µM and 67.8 µM.
`O=c1oc(-c2cccs2)nc2sc3c(c12)CCCC3`: the IC50 was 22.2 µM. Further, the IC50 under setting [1] is > 100 µM. Under setting [2], the IC90 was > 100 µM. The IC90 under setting [3] is 29.7 µM.
As for `Cc1cc(C2C(=O)c3ccccc3C2=O)c(C)c(C)c1C`, the IC50 is 3.79 µM. Besides, under setting [1], the IC50 worked out at 34 µM. For the same compound, under setting [2], the IC90 was > 100 µM. This compound also came in with an IC90 under setting [3] of 16.4 µM.
For `COc1ccc2nc(NC(=O)c3ccc(Br)s3)sc2c1`, in that order: > 100 µM (inactive), > 100 µM, > 100 µM and > 100 µM.
In the same order, the values of `O=c1c2ccccc2c(-c2ccccc2)nn1-c1ccccc1` are 19.7 µM, > 100 µM, > 100 µM and > 100 µM.
In the same order, the values of `CCC(=O)NC(=S)Nc1ccc(NC(=O)c2cccc([N+](=O)[O-])c2C)cc1` are > 100 µM (inactive), > 100 µM, > 100 µM and > 100 µM.
For `O=C(CSCC(=O)Nc1ccccc1)N/N=C/c1c(O)ccc2ccccc12`, the IC50 was 31.9 µM. Moreover, the IC50 under setting [1] is > 100 µM. Moreover, the IC90 under setting [2] was > 100 µM. Also, the IC90 under setting [3] was > 100 µM.
On to `Cc1ccc(SCc2c(-c3ccccc3)nn(C)c2Cl)cc1`, for which the IC50 was 20.9 µM. The compound further yielded an IC50 under setting [1] of 58.7 µM. Moreover, the IC90 under setting [2] is > 100 µM. Moreover, the IC90 under setting [3] was > 100 µM.
As for `C/C(=N\NC(=O)c1csc2ccccc12)c1ccc(O)cc1`, the IC50 was > 100 µM (inactive). The IC50 under setting [1] was > 100 µM. In addition, the IC90 under setting [2] was > 100 µM. In addition, the IC90 under setting [3] is > 100 µM.
In the case of `O=C(Nc1ccc(C(F)(F)F)cc1)c1cc(-c2cccnc2)nc2ccc(Br)cc12`, the IC50 was > 100 µM (inactive). The IC50 under setting [1] was > 100 µM. Further, the concentration for an effect of 90% (IC90) under setting [2] was > 100 µM. Also, the IC90 under setting [3] was > 100 µM.
With `NC(=S)N/N=C/c1cccc(/C=N/NC(N)=S)c1`, the IC50 is 25 µM. Further, under setting [1], the IC50 is > 100 µM. Also, the IC90 under setting [2] was > 100 µM. Also, the IC90 under setting [3] is > 100 µM.
As for `O=C(Nc1cccc2ccccc12)N1CCCN(c2c(Cl)cncc2Cl)CC1`, the IC50 was > 100 µM (inactive). Besides, the IC50 under setting [1] was > 100 µM. The IC90 under setting [2] is > 100 µM. Under setting [3], the IC90 was > 100 µM.
Consider `CCCCNC(=O)/C(=C/c1ccccc1)NC(C)=O`, for which the IC50 was > 100 µM (inactive). In addition, the IC50 under setting [1] is > 100 µM. Besides, under setting [2], the IC90 is > 100 µM. For the same compound, under setting [3], the IC90 is > 100 µM.
As for `CCOC(=O)N1CCN(C(=O)CSc2nnc(COc3ccccc3)o2)CC1`, the IC50 is 7.33 µM. This compound came in with an IC50 under setting [1] of 21.5 µM. The compound also returned an IC90 under setting [2] of 72.9 µM. Further, the concentration for an effect of 90% (IC90) under setting [3] came out at 18.4 µM.
For `Fc1ccc(-c2csc(NC(=S)Nc3ccccc3)n2)cc1`, in that order: 7.55 µM, > 100 µM, > 100 µM and > 50 µM.
In the same order, the values of `Nc1c(C(=O)NC2CC2)c2nc3ccccc3nc2n1-c1ccc2c(c1)OCO2` are 95 µM (inactive), 88.5 µM, > 100 µM and > 100 µM.
For `CCOc1cc(CNCCN(C)C)c(Cl)cc1OCC(=O)NCCc1ccccc1`, in that order: > 100 µM (inactive), > 100 µM, > 100 µM and > 100 µM.
Turning to `C=C(C)COc1ccc2c(C)c(C)c(=O)oc2c1OCC(=C)C`, the IC50 was 79.2 µM (inactive). In addition, the IC50 under setting [1] was > 100 µM. Besides, the IC90 under setting [2] is > 100 µM. In addition, under setting [3], the IC90 was > 100 µM.
For the compound `NNC(=S)NC1CC2CC1C1C=CCC21` (centres undefined), the IC50 was 12.4 µM (inactive). This compound also yielded an IC50 under setting [1] of 21.1 µM. Further, the IC90 under setting [2] is 23.9 µM. Further, the IC90 under setting [3] came to 13.5 µM.
For `NNC(=S)Nc1ccc(C(F)(F)F)cc1Cl`, in that order: > 100 µM (inactive), > 100 µM, > 100 µM and > 100 µM.
Turning to `CCc1ccc(NC(=S)Nc2ccc3cn[nH]c3c2)cc1`, the IC50 is 23.9 µM. For the same compound, the IC50 under setting [1] is > 100 µM. Moreover, the IC90 under setting [2] was > 100 µM. Also, the IC90 under setting [3] was > 100 µM.
As for `CC/C(=N\NC(=O)c1ccc(N(C)C)cc1)c1ccccc1`, the IC50 was > 100 µM (inactive). Under setting [1], the concentration for half-maximal inhibition (IC50) was > 100 µM. Under setting [2], the IC90 was > 100 µM. Also, under setting [3], the IC90 was > 100 µM.
Take `O=C(NCc1cccs1)c1cc(-c2ccccc2)nc2ccccc12`: the IC50 was > 100 µM (inactive). The IC50 under setting [1] is > 100 µM. Also, the IC90 under setting [2] was > 100 µM. The IC90 under setting [3] was > 100 µM.
As for `CCOC(=O)COc1ccc2nsnc2c1`, the IC50 is 23.5 µM (inactive). The compound further had an IC50 under setting [1] of 27 µM. The IC90 under setting [2] was > 100 µM. Further, under setting [3], the IC90 amounted to 26 µM.
Consider `CCOC(=O)c1nn(-c2ccccc2)c(C#N)c1NC(=O)c1nn(CC)cc1Br`, for which the IC50 is > 100 µM (inactive). Further, the IC50 under setting [1] is > 100 µM. For the same compound, the IC90 under setting [2] was > 100 µM. Further, under setting [3], the IC90 is > 100 µM.
For `CNC(=S)N/N=C1\C(=O)c2cccc3cccc1c23`, the IC50 is 20.1 µM. Also, the IC50 under setting [1] is > 100 µM. Also, the IC90 under setting [2] was > 100 µM. Also, the IC90 under setting [3] was > 100 µM.
`O=C(CCSc1ccccc1)Nc1nc2c(s1)CCCC2`: the IC50 was > 100 µM (inactive). Also, the IC50 under setting [1] was > 100 µM. The IC90 under setting [2] is > 100 µM. The IC90 under setting [3] is > 100 µM.
As to `COc1ccc(C(=O)Nc2ccc3nc(N4CCCCC4)cc(C)c3c2)c(OC)c1`, the IC50 is 5.19 µM. Besides, under setting [1], the IC50 was > 100 µM. In addition, under setting [2], the IC90 is > 100 µM. In addition, the IC90 under setting [3] was > 100 µM.
Regarding `Cc1cc2ccccc2n1CCNC(=O)COc1ccccc1`, the IC50 was 30.1 µM (inactive). The IC50 under setting [1] came to 44.7 µM. This compound displayed an IC90 under setting [2] of 60.3 µM. For the same compound, the IC90 under setting [3] was determined as 42.8 µM.
